From article PMC7463714, “Design and Synthesis of Novel Hybrid 8-Hydroxy Quinoline-Indole Derivatives as Inhibitors of Aβ Self-Aggregation and Metal Chelation-Induced Aβ Aggregation” (Molecules, 2020) come the findings set out here.

“Also recorded” adds a separate entry of the source.

One data set addresses T1, Aβ1–42 (Homo sapiens, UniProt P05067).
T1 construct: Aβ1–42 (Adooq Bioscience, CA, USA); purchased Adooq Bioscience
Put plainly: Self-induced Aβ1–42 aggregation, thioflavin T (ThT) fluorescence assay. The class given is biochemical. The protocol: The novel hybrid 8-hydroxyquinoline-indole derivatives, 7a–7e, 12a, 12b, and the (8-hydroxyquinolin-2-yl)methyl-4-(1H-indole-2-carbonyl)piperazine-1-carboxylate analogs 18a–18h were evaluated for inhibitory activity against self-induced Aβ1–42 aggregation at five different concentrations (0.3, 1.0, 3, 9 and 27 µM) with 25 µM Aβ1–42, utilizing a thioflavin T (ThT) fluorescence assay with clioquinol, 1 as a positive control (Figure 3). In the absence of inhibitor, the self-induced Aβ1–42 aggregation ThT fluorescence was recorded as 115 arbitrary units (a.u.). The self-induced Aβ1–42 aggregation results for all the above synthetic analogs from the ThT fluorescence assay are shown in Table 1. […] The thioflavin T (ThT)-fluorescence assay was used to measure the inhibition of Aβ aggregation. Aβ1–42 (Adooq Bioscience, CA, USA) was pretreated with 1 mL of hexafluoroisopropanol (HFIP) to afford a stock solution, which was aliquoted into small samples. The solvent was evaporated at room temperature, and samples were stored at −80 °C. For Aβ1–42 aggregation inhibition experiments, phosphate buffer (pH 7.4) was added to the Aβ stock solution to afford a 50 µM concentration before use. A mixture of the Aβ1–42 peptide (10 µL, 25 µM final concentration) with or without the test compound (10 µL; 0.3, 1.0, 3, 9, and 27 µM) was incubated at 37 °C for 48 h. Blanks using phosphate buffer (pH 7.4) instead of Aβ, with or without test compound, were also assessed. Then 50 mM glycine-NaOH buffer (pH 8.0) containing ThT (5 µM) was added to 20 µL of the sample to afford a final volume of 200 µL. The fluorescence intensities were recorded (excitation, 450 nm; emission, 485 nm). The fluorescence intensities were background corrected to the no enzyme control and 100% of intensity reflected no inhibition of aggregation. To obtain the normalized amyloid aggregation inhibition relative to the control group, the amyloid aggregation/cell values were further divided by the total amyloid fluorescence of the control group. Using GraphPad Prism, the amyloid aggregation values (relative to control group) were entered along the corresponding concentrations for the triplicates and then a log transformation was obtained. Using the dose–response simulation module in GraphPad Prism, nonlinear regression fit (curve) was then generated for each small molecule with various concentrations used. Curves were then compared to determine if they were statistically different, by performing the best-fit values of selected unshared parameters between data sets and extra sum-of-squares F test, allowing for selection of the simpler model unless the P value was less than 0.05. The logEC50 output parameter was then selected to obtain the EC50 for each of the dose–response curves for the small molecules.

The next data set has as its system HEK-tau cells. Put plainly: Protein aggregation in HEK-tau cells (ThT staining). The class given is cell-based, Human. The conditions noted are these: 1 µM, 48 h, 37 °C; compared to clioquinol (1). The protocol:
In our study, we have shown that restoring metal homeostasis by treatment with hybrid 8-hydroxyquinoline-indole analogs reduces tau- and amyloid-mediated protein aggregation, and their associated neurotoxicity. Analogs 7a–7d, 18c–18f, and 18h were evaluated for their ability to reduce protein aggregation in HEK-tau cells. HEK-tau cells were exposed to the above Aβ1–42 aggregation inhibitors and parent drug clioquinol (1) at 1 µM for 48 h at 37 °C. Cells were assessed for amyloid deposits by staining with 0.1% w/v thioflavin T, counterstaining nuclei with DAPI, and mean ThT fluorescence signal per nucleus was calculated over multiple fields. All the analogs reduced fluorescence intensity (indicative of protein aggregation) by 26–62% (P < 0.001 by 2-tailed t-test).
(§1) Human Embryonic Kidney cells that overexpress tau protein (HEK-tau) cells or SY5Y neuroblastoma cells that express a familial-AD mutant of amyloid precursor protein (SY5Y-APPSw cells) were each seeded in 96-well plates at 8000 cells per well. After 24 h, cells were supplemented with test compound at 1 µM after diluting with medium. Vehicle only control was also included for each experiment. The cells were cultured for an additional 48 h at 37 °C. Both the cell lines were able to reach approximately 80% confluency in 48 h. Cells were assessed for amyloid deposits by staining with 0.1% w/v ThT, counterstaining nuclei with DAPI, and calculating mean ThT fluorescence signal per nucleus over multiple fields.

A further data set relates to SY5Y-APPSw cells. Put plainly: Protein aggregation in SY5Y-APPSw cells (ThT staining). Particulars: 1 µM, 48 h, 37 °C; compared to clioquinol (1). The class given is cell-based. On the procedure:
In another study compounds 7a–7d, 18c–18f, and 18h were also evaluated for their ability to reduce protein aggregation in SY5Y-APPSw cells. SY5Y-APPSw cells were exposed to the above protein aggregation inhibitors and parent compound 1 at 1 µM for 48 h at 37 °C. Cells were assessed for amyloid deposits by staining with 0.1% w/v ThT, counterstaining nuclei with DAPI, and mean ThT fluorescence signal per nucleus calculated over multiple fields. All the analogs reduced fluorescence intensity (indicative of protein aggregation) by 22–67% (P < 0.001 by 2-tailed t-test). […] Thioflavin-T fluorescence assays for in vitro amyloid aggregation and cell culture models of amyloid aggregation overlap but are not identical. This is due to the fact that thioflavin in cell-culture stains not just amyloid aggregates but also other amyloid-like fibrillar structures. Another important difference is that in vitro aggregation is assessed after 24 h, whereas aggregation in cell culture is assessed after 48 h.
as §1

A short description of data set [1]: Metal-chelation study by UV-vis spectroscopy and Job's method. The class given is physicochemical. Particulars: compound 50 µM, HEPES buffer pH 7.4, 30 min, shift from 252 nm. On the procedure:
Furthermore, the stoichiometry of formation of metal complexes 18f-Cu^2+ and 18f-Zn^2+ was also determined by using Job’s method (Figure 6). The […] shown in Figure 6A,B at 0.6 and 0.5 imply a stoichiometry of 1.5:1 for 18f-Cu^2+ and 1:1 for 18f-Zn^2+.
The chelating studies were performed with a UV–vis spectrophotometer. The absorption spectra of test compound (50 μM, final concentration) alone or in the presence of CuSO4, FeSO4, or ZnCl2 (50 μM, final concentration) in buffer (20 mM HEPES, 150 mM NaCl, pH 7.4) were incubated for 30 min and then recorded at room temperature, respectively. For the stoichiometry of the test compound–Cu^2+ complex or the test compound–Zn^2+ complex, a fixed amount of test compound (50 μM) was mixed with increasing amounts of copper ion or Zn ion (0–100 μM), and the UV–vis difference spectra were analyzed to determine the ratio of ligand/metal ion in the complex.

T1 sequence (P05067 672-713 limits assumed): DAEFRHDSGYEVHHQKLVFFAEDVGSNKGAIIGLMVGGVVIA

Regarding `COc1ccc2[nH]c(C(=O)N3CCN(C(=O)OCc4ccc5c(Cl)cc(Cl)c(O)c5n4)CC3)cc2c1` [Compound 18f, (5,7-Dichloro-8-hydroxyquinolin-2-yl)methyl-4-(5-methoxy-1H-indole-2-carbonyl)piperazine-1-carboxylate], the 50% effective concentration (EC50) at Aβ1–42 (25 µM Aβ1–42, compound 0.3-27 µM, 37 °C, 48 h, ThT fluorescence, read-out: EC50 against self-induced Aβ1–42 aggregation) worked out at 1080 nM. In addition, the “improvement in inhibitory potency over clioquinol (1), Aβ1–42 self-aggregation” value on Aβ1–42 (relative to 1) is reported as 10 fold. The “protein aggregation inhibition in HEK-tau cells, result in words” value in the data set on HEK-tau cells is on record as “most effective; also recorded: effective in reducing protein aggregation”. Further, in the data set on SY5Y-APPSw cells, the “protein aggregation inhibition in SY5Y-APPSw cells, result in words” value is on record as “effective in reducing protein aggregation”. For the same compound, the “maximum absorption wavelength in the presence of Cu^2+” value in data set [1] (CuSO4 50 µM) is on record as 274 nm. In addition, the “maximum absorption wavelength in the presence of Fe^2+” value in data set [1] (FeSO4 50 µM) is recorded as 255 nm. In data set [1] (ZnCl2 50 µM), the “maximum absorption wavelength in the presence of Zn^2+” value came to 269 nm.

The term EC50 denotes the concentration that produces a half-maximal response.
